Reference: US20220056019A1, “FARNESOID X RECEPTOR AGONISTS AND USES THEREOF” (Metacrine, Inc., priority 2018, published 2022)
pEC50: −log10 of the molar value.

Target: T1, hFXR (Homo sapiens, UniProt Q96RI1)
T1 construct: expressed in transfected cells; host or cells: CV-1 cells
T1 sequence (Q96RI1 1-486): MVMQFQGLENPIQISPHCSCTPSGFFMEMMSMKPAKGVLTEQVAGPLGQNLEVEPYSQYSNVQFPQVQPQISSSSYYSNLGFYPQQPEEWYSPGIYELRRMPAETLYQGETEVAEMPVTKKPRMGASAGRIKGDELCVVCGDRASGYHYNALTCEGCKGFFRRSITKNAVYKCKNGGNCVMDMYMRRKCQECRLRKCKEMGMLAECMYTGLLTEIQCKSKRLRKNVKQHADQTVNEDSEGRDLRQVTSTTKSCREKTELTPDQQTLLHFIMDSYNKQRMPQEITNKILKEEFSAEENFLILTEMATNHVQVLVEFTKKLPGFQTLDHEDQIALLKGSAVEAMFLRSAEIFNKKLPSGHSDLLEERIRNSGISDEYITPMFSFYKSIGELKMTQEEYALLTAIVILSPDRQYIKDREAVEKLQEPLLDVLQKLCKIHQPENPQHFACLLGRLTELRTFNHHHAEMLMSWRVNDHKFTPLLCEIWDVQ
T1 sequence (P19793 1-462 partner): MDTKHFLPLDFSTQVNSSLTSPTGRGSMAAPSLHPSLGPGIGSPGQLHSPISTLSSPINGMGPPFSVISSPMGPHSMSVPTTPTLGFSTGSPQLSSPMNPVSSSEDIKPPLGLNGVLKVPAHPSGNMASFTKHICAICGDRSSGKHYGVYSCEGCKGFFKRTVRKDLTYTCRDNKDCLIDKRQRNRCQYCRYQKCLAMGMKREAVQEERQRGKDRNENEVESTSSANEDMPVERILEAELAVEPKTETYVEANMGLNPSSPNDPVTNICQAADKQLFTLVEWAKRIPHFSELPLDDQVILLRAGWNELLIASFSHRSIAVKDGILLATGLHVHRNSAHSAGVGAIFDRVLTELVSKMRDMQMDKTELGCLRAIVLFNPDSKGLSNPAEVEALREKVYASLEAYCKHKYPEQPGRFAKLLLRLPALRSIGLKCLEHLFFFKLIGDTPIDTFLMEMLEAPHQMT
Assay: In Vitro FXR Assay (TK): TK-ECRE-luc reporter in transfected CV-1 cells
Format: cell-based
Details: 18 hrs incubation, luminescence
How it was run: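 CV-1, DMEM/10% charcoal-stripped FBS, 37 °C 5% CO2. Transfection O/N: hFXR + hRXR + TK-ECRE-luc + pCMX-YFP. Cpds (DMSO serial dil.) 18 h; lyse, read luminescence.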

SMILES	pEC50
COc1ccc([C@H]2CC[C@H](CN(c3cc(-c4cnn(C(C)C)c4)ccn3)C(=O)[C@H]3CC[C@H](CO)CC3)CC2)cc1C [Compound 17, (trans)-4-(Hydroxymethyl)-N-(4-(1-isopropyl-1H-pyrazol-4-yl)pyridin-2-yl)-N-(((trans)-4-(4-methoxy-3-methylphenyl)cyclohexyl)methyl)cy-clohexanecarboxamide]	≥ 7.30
COc1ccc([C@H]2CC[C@H](CN(c3cccc(-c4coc(C5CC5)n4)c3)C(=O)[C@H]3CC[C@H](C(=O)OC)CC3)CC2)nc1C [Compound 18, trans-Methyl 4-((3-(2-cyclopropyloxazol-4-yl)phenyl)((trans-4-(5-methoxy-6-methylpyridin-2-yl)cyclohexyl)methyl)carbamoyl)cyclo-hexanecarboxylate]	≥ 7.30
COc1ccc([C@H]2CC[C@H](CN(c3cccc(-c4coc(C5CC5)n4)c3)C(=O)[C@H]3CC[C@H](C(C)(C)O)CC3)CC2)nc1C [Compound 19, trans-N-(3-(2-Cyclopropyloxazol-4-yl)phenyl)-4-(2-hydroxypropan-2-yl)-N-((trans-4-(5-methoxy-6-methylpyridin-2-yl)cyclohexyl)methyl)cyclohexanecar-boxamide]	≥ 7.30
COc1ccc([C@H]2CC[C@H](CN(c3cccc(-c4coc(C5CC5)n4)c3)C(=O)[C@H]3CC[C@H](CO)CC3)CC2)nc1C [Compound 20, trans-N-(3-(2-Cyclopropyloxazol-4-yl)phenyl)-4-(hydroxymethyl)-N-((trans-4-(5-methoxy-6-methylpyridin-2-yl)cyclohexyl)methyl)cyclohexanecar-boxamide]	≥ 7.30
COc1ccc([C@H]2CC[C@H](CN(c3cccc(-c4cnn(C5CC5)c4)c3)C(=O)[C@H]3CC[C@H](C(C)O)CC3)CC2)cc1C (stereo partly drawn) [Compound 21, trans-N-(3-(1-Cyclopropyl-1H-pyrazol-4-yl)phenyl)-4-(1-hydroxyethyl)-N-((trans-4-(4-methoxy-3-methylphenyl)cyclohexyl)methyl)cyclohexanecarboxamide]	≥ 7.30
COc1ccc(C23CCC(CN(c4cc(-c5coc(C(C)C)n5)ccn4)C(=O)[C@H]4CC[C@H](OC(=O)NCCO)CC4)(CC2)CC3)cc1C [Compound 22, 4-((4-(2-Isopropyloxazol-4-yl)pyridin-2-yl)((4-(4-methoxy-3-methylphenyl)bicyclo[2.2.2]octan-1-yl)methyl)carbamoyl)cyclohexyl (2-hydroxyethyl)trans-carbamate]	≥ 7.30
COc1ccc(C23CCC(CN(c4cc(-c5cnn(C(C)C)c5)ncn4)C(=O)[C@H]4CC[C@H](OC(=O)N5CC(O)C5)CC4)(CC2)CC3)cc1C [Compound 23, 4-((6-(1-Isopropyl-1H-pyrazol-4-yl)pyrimidin-4-yl)((4-(4-methoxy-3-methylphenyl)bicyclo[2.2.2]octan-1-yl)methyl)carbamoyl)(trans-cyclohexyl) 3-hydroxyazetidine-1-carboxylate]	≥ 7.30

The next lines start with the values.

pEC50	SMILES
≥ 7.30	COc1ccc(C23CCC(CN(c4cc(-c5coc(C(C)C)n5)ccn4)C(=O)[C@H]4CC[C@H](OC(=O)N5CC(CO)C5)CC4)(CC2)CC3)cc1C [Compound 23.01, 4-((4-(2-Isopropyloxazol-4-yl)pyridin-2-yl)((4-(4-methoxy-3-methylphenyl)bicyclo[2.2.2]octan-1-yl)methyl)carbamoyl)(trans-cyclohexyl) 3-(hydroxymethyl)azetidine-1-carboxylate]
≥ 7.30	COc1ccc(C23CCC(CN(c4cc(-c5coc(C(C)C)n5)ccn4)C(=O)[C@H]4CC[C@H](OC(=O)NCCCO)CC4)(CC2)CC3)cc1C [Compound 23.02, 4-((4-(2-Isopropyloxazol-4-yl)pyridin-2-yl)((4-(4-methoxy-3-methylphenyl)bicyclo[2.2.2]octan-1-yl)methyl)carbamoyl)(trans-cyclohexyl)(3-hydroxypropyl)carbamate]
≥ 7.30	COc1ccc(C23CCC(CN(c4cc(-c5coc(C(C)C)n5)ccn4)C(=O)[C@H]4CC[C@H](OC(=O)N5CC(S(C)(=O)=O)C5)CC4)(CC2)CC3)cc1C [Compound 23.03, 4-((4-(2-Isopropyloxazol-4-yl)pyridin-2-yl)((4-(4-methoxy-3-methylphenyl)bicyclo[2.2.2]octan-1-yl)methyl)carbamoyl)(trans-cyclohexyl) 3-(methylsulfonyl)azetidine-1-carboxylate]
≥ 7.30	COc1ccc(C23CCC(CN(c4cc(-c5coc(C(C)C)n5)ccn4)C(=O)[C@H]4CC[C@H](OC(=O)NC5COC5)CC4)(CC2)CC3)cc1C [Compound 23.04, 4-((4-(2-Isopropyloxazol-4-yl)pyridin-2-yl)((4-(4-methoxy-3-methylphenyl)bicyclo[2.2.2]octan-1-yl)methyl)carbamoyl)(trans-cyclohexyl)oxetan-3-ylcarbamate]
≥ 7.30	COc1ccc(C23CCC(CN(c4cc(-c5coc(C(C)C)n5)ccn4)C(=O)[C@H]4CC[C@H](OC(=O)N5CC(OCCO)C5)CC4)(CC2)CC3)cc1C [Compound 23.05, 4-((4-(2-Isopropyloxazol-4-yl)2-yl)((4-(4-methoxy-3-methylphenyl)bicyclo[2.2.2]octan-1-yl)methyl)carbamoyl)(trans-cyclohexyl) 3-(2-hydroxyethoxy)azetidine-1-carboxylatepyridin-]
≥ 7.30	COc1ccc(C23CCC(CN(c4cc(-c5coc(C(C)C)n5)ccn4)C(=O)[C@H]4CC[C@H](OC(=O)NCCC(C)(C)O)CC4)(CC2)CC3)cc1C [Compound 23.06, 4-((4-(2-Isopropyloxazol-4-yl)pyridin-2-yl)((4-(4-methoxy-3-methylphenyl)bicyclo[2.2.2]octan-1-yl)methyl)carbamoyl)(trans-cyclohexyl)(3-hydroxy-3-methylbutyl)carbamate]
≥ 7.30	COc1ccc(C23CCC(CN(c4cc(-c5cnn(C6CCCC6)c5)ccn4)C(=O)[C@H]4CC[C@H](OC(=O)N5CC(O)C5)CC4)(CC2)CC3)cc1C [Compound 23.07, 4-((4-(1-Cyclopentyl-1H-pyrazol-4-yl)pyridin-2-yl)((4-(4-methoxy-3-methylphenyl)bicyclo[2.2.2]oc-tan-1-yl)methyl)carbamoyl)(trans-cyclohexyl) 3-hydroxy-azetidine-1-carboxylate]
≥ 7.30	COc1ccc(C23CCC(CN(c4cc(-c5cnn(C6CCC6)c5)ccn4)C(=O)[C@H]4CC[C@H](OC(=O)N5CC(O)C5)CC4)(CC2)CC3)cc1C [Compound 23.08, 4-((4-(1-Cyclobutyl-1H-pyrazol-4-yl)pyridin-2-yl)((4-(4-methoxy-3-methylphenyl)bicyclo[2.2.2]octan-1-yl)methyl)carbamoyl)(trans-cyclohexyl) 3-hydroxyazetidine-1-carboxylate]
≥ 7.30	COc1ccc(C23CCC(CN(c4cc(-c5cnn(C6CCCC6)c5)ccn4)C(=O)[C@H]4CC[C@H](OC(=O)N5CC(CO)C5)CC4)(CC2)CC3)cc1C [Compound 23.09, 4-((4-(1-Cyclopentyl-1H-pyrazol-4-yl)pyridin-2-yl)((4-(4-methoxy-3-methylphenyl)bicyclo[2.2.2]octan-1-yl)methyl)carba-moyl)(trans-cyclohexyl) 3-(hydroxymethyl)azetidine-1-carboxylate]
≥ 7.30	COc1ccc(C23CCC(CN(c4cc(-c5cnn(C6CCC6)c5)ccn4)C(=O)[C@H]4CC[C@H](OC(=O)N5CC(CO)C5)CC4)(CC2)CC3)cc1C [Compound 23.10, 4-((4-(1-Cyclobutyl-1H-pyrazol-4-yl)pyridin-2-yl)((4-(4-methoxy-3-methylphenyl)bicyclo[2.2.2]octan-1-yl)methyl)carbamoyl)(trans-cyclohexyl) 3-(hydroxymethyl)azetidine-1-carboxylate]
≥ 7.30	COc1ccc(C23CCC(CN(c4cc(-c5cnn(C(C)C)c5)ccn4)C(=O)[C@H]4CC[C@H](OC(=O)N5CC(OC(C)C)C5)CC4)(CC2)CC3)cc1C [Compound 23.11, 4-((4-(1-Isopropyl-1H-pyrazol-4-yl)pyridin-2-yl)((4-(4-methoxy-3-methylphenyl)bicyclo[2.2.2]octan-1-yl)methyl)carbamoyl)(trans-cyclohexyl) 3-isopropoxy-azetidine-1-carboxylate]
≥ 7.30	COc1ccc(C23CCC(CN(c4cc(-c5cnn(C(C)C)c5)ccn4)C(=O)[C@H]4CC[C@H](OC(=O)N5CC(C(C)C)C5)CC4)(CC2)CC3)cc1C [Compound 23.12, 4-((4-(1-Isopropyl-1H-pyrazol-4-yl)pyridin-2-yl)((4-(4-methoxy-3-methylphenyl)bicyclo[2.2.2]oc-tan-1-yl)methyl)carbamoyl)cyclo-hexyl trans-3-isopropyl-azetidine-1-carboxylate]
